Earlier results as cited in paper PMC11686138 (Nature Communications, 2024).

Molecular target: CLDN4
Settings: reported KD

For NSSYSGNYYSIL [Cpe30 MT2], the Kd is given as 1.97 nM.
